# Test system: rat
# Assay: CFA-Induced Paw Radiant Heat Hypersensitivity
# Assay type: in vivo
# Settings: CFA thermal hypersensitivity, 30 mg/kg p.o., HPβCD, group mean values, last time point 180 or 300 min
# Method: Each rat was placed in a test chamber on a warm glass surface and allowed to acclimate for approximately 10 min. A radiant thermal stimulus (beam of light) was then focused through the glass onto the plantar surface of each hind paw in turn. The thermal stimulus was automatically shut off by a photoelectric relay when the paw was moved or when the cut-off time was reached (20 sec for radiant heat at ˜5 amps). An initial (baseline) response latency to the thermal stimulus was recorded for each animal prior to the injection of complete Freund's adjuvant (CFA). 24 h following intraplantar CFA injection, the response latency of the animal to the thermal stimulus was then re-evaluated and compared to the animal's baseline response time. […] Post-compound treatment withdrawal latencies were assessed at fixed time intervals, typically 30, 60, 120, 180, and 300 min.
# The percent reversal (% R) of hypersensitivity was calculated in one of two different ways: 1) using group mean values or 2) using individual animal values. […]
# Method 1. For all compounds, the % R of hypersensitivity was calculated using the mean value for groups of animals at each time point according to the following formula: % reversal=[(group treatment response−group CFA response)/(group baseline response−group CFA response)]×100 Results are given for the maximum % reversal observed for each compound at any time point tested. […]
compound,measurement,value
O=C(c1ccc(-c2cccc(C(F)(F)F)c2)c(Cl)c1)N1CC(N2CCN(C(=O)c3cscn3)CC2)C1 [Cpd 1102],Method 1: peak % reversal,38%

# Reference: patent US8697684B2, “Azetidinyl diamides as monoacylglycerol lipase inhibitors” (Janssen Pharmaceutica NV, priority 2009, dated 2014)
